Here are results for two compounds from patent publication US10494378B2, “Fused ring pyrimidine compound, intermediate, and preparation method, composition and use thereof” (GUANGZHOU MAXINOVEL PHARMACEUTICALS CO., LTD., priority 2015, dated 2019).

Holding throughout (format): biochemical
In one test the target is T1, FLT3-ITD kinase (Homo sapiens, UniProt P36888).
T1 sequence (P36888 1-993): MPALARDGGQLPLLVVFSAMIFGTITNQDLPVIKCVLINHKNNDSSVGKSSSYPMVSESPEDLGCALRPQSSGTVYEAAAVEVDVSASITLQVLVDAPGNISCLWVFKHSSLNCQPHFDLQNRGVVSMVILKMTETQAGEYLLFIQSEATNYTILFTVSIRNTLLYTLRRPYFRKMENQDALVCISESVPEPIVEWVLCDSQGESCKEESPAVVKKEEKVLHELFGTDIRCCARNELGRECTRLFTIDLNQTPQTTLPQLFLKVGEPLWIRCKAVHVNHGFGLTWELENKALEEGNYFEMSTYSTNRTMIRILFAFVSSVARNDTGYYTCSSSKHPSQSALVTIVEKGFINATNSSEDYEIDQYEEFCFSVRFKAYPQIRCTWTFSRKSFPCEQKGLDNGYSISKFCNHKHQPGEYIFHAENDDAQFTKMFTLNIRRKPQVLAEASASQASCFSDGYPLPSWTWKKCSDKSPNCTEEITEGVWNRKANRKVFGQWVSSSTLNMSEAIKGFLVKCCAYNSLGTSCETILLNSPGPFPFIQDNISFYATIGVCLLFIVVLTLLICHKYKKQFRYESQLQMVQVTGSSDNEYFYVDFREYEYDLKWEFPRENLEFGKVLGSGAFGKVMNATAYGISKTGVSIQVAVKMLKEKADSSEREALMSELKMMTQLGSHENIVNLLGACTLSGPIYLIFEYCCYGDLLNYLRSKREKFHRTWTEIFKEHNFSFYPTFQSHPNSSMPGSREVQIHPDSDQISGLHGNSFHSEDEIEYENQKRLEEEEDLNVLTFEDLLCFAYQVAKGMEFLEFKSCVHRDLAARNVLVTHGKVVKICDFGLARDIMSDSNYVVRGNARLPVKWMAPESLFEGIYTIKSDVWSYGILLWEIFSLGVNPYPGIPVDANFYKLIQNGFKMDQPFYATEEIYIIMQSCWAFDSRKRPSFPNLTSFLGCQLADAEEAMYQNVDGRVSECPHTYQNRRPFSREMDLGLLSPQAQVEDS
The test can be described thus: IC50 evaluation assay of FLT3-ITD kinase inhibition (Caliper). Particulars: 28° C.; average of two tests; read-out: IC50 (nM) inhibiting FLT3-ITD kinase. As for the experimental part: (§1) 1. The compound was dissolved in 100% DMSO, diluted into solutions with appropriate concentration gradients with water according to experimental requirement, and added to a 96-well plate.
(§2) 2. FLT3 kinase (Carna, Cat. No. 08-154, Lot. No. 07CBS-2350), FLT3-ITD kinase (Invitrogen, Cat. No. PV6191, Lot. No. 1753453) and FLT3-D835Y kinase (Invitrogen, Cat. No. PR7450A, Lot. No. 1629729C) were diluted to the optimum concentration with the following buffer solution: 50 mM HEPES, pH 7.5, 0.0015% Brij-35, 10 mM MgCl2, 2 mM DTT. Transfer to the 96-well plate and incubate with the compound at 28° C. for a period of time.
(§3) 3. The buffer solution (100 mM HEPES, pH 7.5, 0.0015% Brij-35, 0.2% Coating Reagent and […]) was added to terminate the reaction.
(§4) 4. The conversion rate was read with Caliper Reader. The inhibition rate was calculated as the average of two tests.

For another test, the target named is T2, HCK kinase (Homo sapiens, UniProt P08631).
T2 construct: purchased BPS 40440
T2 sequence (P08631 whole entry): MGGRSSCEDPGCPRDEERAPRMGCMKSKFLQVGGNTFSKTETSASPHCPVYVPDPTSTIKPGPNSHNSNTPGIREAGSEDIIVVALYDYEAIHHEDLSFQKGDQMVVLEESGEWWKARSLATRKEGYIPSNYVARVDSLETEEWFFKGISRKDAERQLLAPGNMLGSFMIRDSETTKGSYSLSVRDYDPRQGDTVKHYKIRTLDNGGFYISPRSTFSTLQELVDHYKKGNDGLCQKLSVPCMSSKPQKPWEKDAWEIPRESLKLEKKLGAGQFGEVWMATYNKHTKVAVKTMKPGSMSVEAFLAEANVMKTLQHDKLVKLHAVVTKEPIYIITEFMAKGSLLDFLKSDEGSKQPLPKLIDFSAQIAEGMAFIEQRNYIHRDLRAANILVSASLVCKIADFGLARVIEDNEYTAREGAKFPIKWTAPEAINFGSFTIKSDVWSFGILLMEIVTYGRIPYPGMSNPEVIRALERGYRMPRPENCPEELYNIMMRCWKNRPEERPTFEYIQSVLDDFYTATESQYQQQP
The test can be described thus: IC50 evaluation assay of Src family kinase inhibition: HCK. Particulars: 28° C.; average of two tests; read-out: IC50 (nM) inhibiting Src family kinase HCK. As for the experimental part: as §1
2. c-Src kinase (Carna, Cat. No. 08-173, Lot. No. 05CBS-1367), LYNαkinase (Carna, Cat. No. 08-171, Lot. No. 06CBS-3296D), FYN kinase (Carna, Cat. No. 08-068, Lot. No. 05CBS-1032), LCK kinase (Carna, Cat. No. 08-170, Lot. No. 07CBS-2482), HCK kinase (BPS, Cat. No. 40440, Lot. No. 1001), FGR kinase (Carna, Cat. No. 08-166, Lot. No. 05CBS-2781), YES kinase (Carna, Cat. No. 08-175, Lot. No. 06CBS-3247) were diluted to the optimum concentration with the following buffer solution: 50 mM HEPES, pH 7.5, 0.0015% Brij-35, 10 mM MgCl2, 2 mM DTT. Transfer to the 96-well plate and incubate with the compound at 28° C. for a period of time.
as §3, §4

The target in a further test is T3, FLT3-D835Y kinase (Homo sapiens, UniProt P36888, D835Y).
T3 construct: purchased Invitrogen PR7450A
T3 sequence (P36888 27-993 D835Y): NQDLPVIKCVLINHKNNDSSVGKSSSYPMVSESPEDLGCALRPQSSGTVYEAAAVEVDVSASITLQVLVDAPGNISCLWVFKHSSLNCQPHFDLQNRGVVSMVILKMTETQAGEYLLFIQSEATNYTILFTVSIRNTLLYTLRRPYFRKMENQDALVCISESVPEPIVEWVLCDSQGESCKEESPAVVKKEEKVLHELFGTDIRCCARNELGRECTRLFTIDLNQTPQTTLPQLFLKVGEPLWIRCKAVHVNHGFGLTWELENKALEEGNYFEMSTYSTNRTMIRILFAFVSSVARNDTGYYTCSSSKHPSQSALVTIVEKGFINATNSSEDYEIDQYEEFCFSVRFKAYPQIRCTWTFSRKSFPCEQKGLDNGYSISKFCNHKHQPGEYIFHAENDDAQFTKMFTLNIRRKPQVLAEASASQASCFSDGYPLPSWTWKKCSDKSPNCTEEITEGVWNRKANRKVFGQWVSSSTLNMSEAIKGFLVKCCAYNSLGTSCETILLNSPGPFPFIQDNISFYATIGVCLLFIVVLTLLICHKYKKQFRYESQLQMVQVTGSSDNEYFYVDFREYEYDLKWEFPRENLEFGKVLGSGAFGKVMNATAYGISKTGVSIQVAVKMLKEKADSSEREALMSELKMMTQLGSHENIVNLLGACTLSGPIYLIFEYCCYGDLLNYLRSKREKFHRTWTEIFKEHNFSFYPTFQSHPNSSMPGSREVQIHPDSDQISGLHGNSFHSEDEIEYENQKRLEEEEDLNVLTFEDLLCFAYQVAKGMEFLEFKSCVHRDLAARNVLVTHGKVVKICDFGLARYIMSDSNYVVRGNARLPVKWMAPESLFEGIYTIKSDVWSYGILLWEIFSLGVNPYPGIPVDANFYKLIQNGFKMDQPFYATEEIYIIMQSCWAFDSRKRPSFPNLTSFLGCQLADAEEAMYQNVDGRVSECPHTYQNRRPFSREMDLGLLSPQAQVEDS
As to the kind of experiment: IC50 evaluation assay of FLT3-D835Y kinase inhibition (Caliper). Particulars: 28° C.; average of two tests; read-out: IC50 (nM) inhibiting FLT3-D835Y kinase. As to the method: as §1, §2, §3, §4

One may read the IC50 as the point on the concentration scale where inhibition reaches its midpoint. On to `COc1cc(F)ccc1-c1c(C)sc2cnc(Nc3cnn(C4CCNCC4)c3)nc12` [Compound 31, N-[7-(4-fluoro-2-methoxyphenyl)-6-methylthieno[3,2-d]pyrimidinyl-2-yl]-1-(piperidinyl-4-yl)-1H-pyrazol-4-amine], for which the 50% inhibitory concentration (IC50) turned out to be 0.34 nM at FLT3-ITD kinase, 30 nM on HCK kinase and 0.2 nM on FLT3-D835Y kinase.

On to `COc1cc(F)ccc1-c1c(C)sc2cnc(Nc3cnn(C4CCN(CCO)CC4)c3)nc12` [Compound 34, 2-[4-(4-{[7-(4-fluoro-2-methoxyphenyl)-6-methylthieno[3,2-d]pyrimidinyl-2-yl]amino}-1H-pyrazol-1-yl)-piperidinyl-1-yl]-1-ethanol], for which the IC50 was 0.33 nM at FLT3-ITD kinase, 27 nM on HCK kinase and 0.23 nM on FLT3-D835Y kinase.
